Reference: ChEMBL document CHEMBL5143658, “Synthesis and biological evaluation of imidamide analogs as selective anti-trypanosomal agents” (Bioorg Med Chem, 2022)
pIC50: −log10 of the molar value. Active and inactive are the calls of the source. No cut-off for these calls is given here.

How the values were obtained:
[1] = Selectivity index, ratio of IC50 for cytotoxicity against mouse RAW264.7 cells to IC50 for antitrypanosomal activity against blood stream form of Trypanosoma brucei Lister 427; assay type: toxicity, cell-based; settings: read-out: Ratio IC50
[2] = Cytotoxicity against mouse RAW264.7 cells assessed as inhibition of cell growth incubated for 48 hrs by MTT assay; assay type: toxicity, cell-based
[3] = Selectivity index, ratio of IC50 for cytotoxicity against HEK293 cells to IC50 for antitrypanosomal activity against blood stream form of Trypanosoma brucei Lister 427; assay type: toxicity, cell-based; settings: human, read-out: Ratio IC50
Trypanosoma brucei [4] = assay: Antitrypanosomal activity against blood stream form of Trypanosoma brucei Lister 427 assessed as inhibition of parasite growth incubated for 48 hrs by MTS assay; assay type: functional, organism-based; settings: Lister 427, 48 h
[5] = Cytotoxicity against HEK293 cells assessed as inhibition of cell growth incubated for 48 hrs by MTT assay; assay type: toxicity, cell-based; settings: human
Trypanosoma brucei [6] = assay: Inhibition of tubulin polymerization in blood stream form of Trypanosoma brucei Lister 427 assessed as reduction in polymerized tubulin level incubated for 12 hrs by Western blot analysis; settings: dose 200-1000 nM

SMILES	pIC50 (Trypanosoma brucei [4])	selectivity ratio [1]	IC50 at 48 h [2] [µM]	selectivity ratio [3]	IC50 at 48 h [5] [µM]	inhibition (Trypanosoma brucei [6])
CN(c1ccc(NC(=O)c2ccc(C(=N)N)cc2)cc1OCc1ccc(C(F)(F)F)cc1)S(=O)(=O)Cc1ccccc1	4.55	17.6	> 500	> 17.6	> 500	
CN(c1ccc(NC(=O)c2cccc(C(=N)N)c2)cc1OCc1ccc(C(=N)N)cc1)S(=O)(=O)Cc1ccccc1		50000	> 500			Active
N=C(N)Nc1ccc(NC(=O)c2ccc(C(F)(F)F)cc2C(F)(F)F)cc1OCc1ccc(C(F)(F)F)cc1	4.74	27.5	> 500	15.7	286	
CCS(=O)(=O)N(C)c1ccc(NC(=O)c2cccc(C(=N)N)c2)cc1OCc1ccc(C(=N)N)cc1	6.23	847	> 500	722	426	
CN(c1ccc(NC(=O)c2cccc(C(=N)N)c2)cc1OCc1ccc(C(F)(F)F)cc1)S(=O)(=O)C(F)(F)F	< 4.30	10	> 500		> 500	
N=C(N)Nc1ccc(NC(=O)c2cc(C(F)(F)F)cc(C(F)(F)F)c2)cc1OCc1ccc(C(F)(F)F)cc1	4.77	29.6	> 500	24.6	416	
Cc1ccc(C(F)(F)F)c(COc2cc(NC(=O)c3cccc(C(=N)N)c3)ccc2N(C)S(=O)(=O)C(F)(F)F)c1	6.66	3.9	0.86	114	25	
CN(c1ccc(NC(=O)c2ccc(C(=N)N)cc2)cc1OCc1ccc(C(F)(F)F)cc1)S(=O)(=O)C(F)(F)F	< 4.30	10	> 500		> 500	
CN(c1ccc(NC(=O)c2cccc(C(=N)N)c2)cc1OCc1cccc(C(F)(F)F)c1)S(=O)(=O)Cc1ccccc1	4.81	32.6	> 500	> 32.6	> 500	
N=C(N)Nc1ccc(NC(=O)c2cc(C(F)(F)F)cc(C(F)(F)F)c2)cc1OCc1ccccc1C(F)(F)F	4.35	10.7	481	> 11.1	> 500	
CN(c1ccc(NC(=O)c2cccc(C(=N)N)c2)cc1OCc1ccc(C(F)(F)F)cc1)S(=O)(=O)Cc1ccccc1	4.86	36.3	> 500	> 36.3	> 500	

Further lines, with some results ahead:

pIC50 (Trypanosoma brucei [4])	SMILES	selectivity ratio [1]	IC50 at 48 h [2] [µM]	selectivity ratio [3]	IC50 at 48 h [5] [µM]	inhibition (Trypanosoma brucei [6])
< 4.30	CCCCCCOc1cc(NC(=O)c2ccc3c(c2)OCO3)ccc1NC(=N)N	9.2	460	< 7.7	385	
6.05	COc1ccc(C(=O)Nc2ccc(NC(=N)N)c(OCc3cc(OC)ccc3OC)c2)cc1	211	190	> 556	> 500	
4.47	N=C(N)Nc1ccc(NC(=O)c2ccc3c(c2)OCO3)cc1OCc1cccc(C(F)(F)F)c1	2.99	101	9.3	313	
< 4.30	COc1ccc(OC)c(COc2cc(NC(=O)c3cc(C(F)(F)F)cc(C(F)(F)F)c3)ccc2NC(=N)N)c1	2.45	123	< 6.13	307	
4.82	N=C(N)Nc1ccc(NC(=O)c2ccc(Cl)c(Cl)c2)cc1OCc1ccccc1C(F)(F)F	12.8	196	> 32.8	> 500	
4.32	COc1ccc(C(=O)Nc2ccc(NC(=N)N)c(OCc3cc(C)ccc3C)c2)cc1	10.4	> 500	> 10.4	> 500	
4.68	Cc1ccc(C)c(COc2cc(NC(=O)c3cc(C(F)(F)F)cc(C(F)(F)F)c3)ccc2NC(=N)N)c1	23.8	> 500	> 23.8	> 500	
< 4.30	N=C(N)Nc1ccc(NC(=O)c2ccc3c(c2)OCO3)cc1OCc1ccc(C(F)(F)F)cc1	0.54	27.2	< 6.87	344	
< 4.30	COc1ccc(OC)c(COc2cc(NC(=O)c3ccc4c(c3)OCO4)ccc2NC(=N)N)c1	10	> 500		> 500	
< 4.30	CCCCCCOc1cc(NC(=O)c2ccc(OC)cc2)ccc1NC(=N)N	5.17	259		> 500	
< 4.30	N=C(N)Nc1ccc(NC(=O)c2ccc3c(c2)OCO3)cc1OCc1ccccc1C(F)(F)F	10	> 500	< 9	450	
4.56	Cc1ccc(C)c(COc2cc(NC(=O)c3ccc(Cl)c(Cl)c3)ccc2NC(=N)N)c1	18.1	> 500	> 18.1	> 500	
< 4.30	N=C(N)Nc1ccc(NC(=O)c2ccc(Cl)c(Cl)c2)cc1OCc1ccc(C(F)(F)F)cc1	10	> 500		> 500	
4.56	COc1ccc(C(=O)Nc2ccc(NC(=N)N)c(OCc3cccc(C(F)(F)F)c3)c2)cc1	3.71	102	9.58	263	
